In publication PMC10297291 (2023):
Blank lines part the entries; values can stand above or below the compound they belong to.

How the values were obtained:
[1] = test system: G4 (DNA, G4) AGGGTTAGGGTTAGGGTTAGGG; assay: thiazole orange displacement (G4-FID), fluorescence; conditions: 10 mM K+, 90 mM Li+, 10 mM lithium cacodylate pH 7.2, 1 µM TO displaced, 0.25 µM DNA, 3 min equilibration
[2] = test system: ds26 (DNA, duplex) CAATCGGATCGAATTCGATCCGATTG; assay: as above; conditions: 10 mM K+, 90 mM Li+, 10 mM lithium cacodylate pH 7.2, 1 µM TO displaced, 0.25 µM DNA, 3 min equilibration
[3] = test system: G4 (DNA, G4) AGGGTTAGGGTTAGGGTTAGGG; assay: thiazole orange displacement (G4-FID), kinetics; conditions: 10 mM K+, 90 mM Li+; 10 mM lithium cacodylate pH 7.2; 1 µM TO displaced, 0.25 µM DNA; resveratrol concentration not stated

binding ([1]; positive control): yes
binding ([2]; positive control): yes
Compound: O=c1c(O)c(-c2ccc(O)c(O)c2)oc2cc(O)cc(O)c12

TO shift ([1]; highest concentrations): < 20%
TO shift ([2]; highest concentrations): < 20%
Compound: O=c1cc(-c2ccccc2)oc2cc(O)cc(O)c12

binding [3]: no
Compound: Oc1ccc(/C=C/c2cc(O)cc(O)c2)cc1
